Values joined by “and” are separate entries in the source; they are usually repeats but may differ in a detail not shown here. Equal entries are not always repeated.
Experiments:
[1] = system: mice, spared nerve injury (SNI) model; experiment: SNI model of neuropathic pain, von Frey, single s.c. dose, male mice day 7; assay type: in vivo, mouse
Experimental: Induction of neuropathic pain (SNI model).
The initial SNI pain experiment (Figure 4A) was performed by Phenotype Expertise, Marseilles, France – Pain and CNS behaviour CRO under supervision of Stéphane Gaillard, PhD (CEO). Surgery was performed on 8-week-old C57BL/6J male mice (Charles River). The spared nerve injury surgery was performed on anaesthetized mice with a buprenorphine […]
solution (0.05 mg/kg) injected s.c. 30 min before surgery (10 μL/g). For surgery, mice were anaesthetised with ketamine (100 mg/kg, i.p.) and xylazine (10 mg/kg, i.p.) (volume 10 µL/g) with 100 μL of 1% xylocaine solution infiltrated at the site of the incision. The distal trifurcation of the sciatic nerve was identified, and the tibial and common peroneal branches were ligated with polypropylene nonabsorbable 6-0 sutures (Ethicon) and 1 mm was cut out, leaving the sural branch intact. The wound was closed with sutures, and the animals were allowed to recover and returned to their cages. Two subcutaneous injections of buprenorphine (0.05 mg/kg) were performed with an 8 to 12 hours delay decreasing pain due to the surgery […]
The remaining SNI pain experiments were performed in-house using the following procedure.
SNI surgery was performed on the left hindleg of C57BL/6J male and female mice (Janvier, France) under 2% isoflurane anaesthesia. Skin on the lateral surface was incised between hip and knee followed by lengthwise division of the biceps femoris muscle leading to exposure of the three branches of the sciatic nerve. Sural branch was left intact, while the peroneal and tibial branches were ligated with a single surgical knot and axotomized distally of the ligation.
Wounds were closed with surgical glue or medical clips and animals were monitored daily for signs of stress or discomfort, but in all cases recovered uneventfully.
Induction of Diabetic neuropathy (STZ model).
Diabetes was induced by a single i.p. injection of […] streptozocin (STZ) solution (100 μL/10 g, Sigma-Aldrich S0130, batch #WXBB7152V) in male seven-week-old C57BL/6J (Charles River) mice. Glycemia was tested before, and seven days after injection. All injected mice had blood glucose concentration >350 mg/dL from day seven and were used for analgesic testing of the compounds from day 14. One mouse had to be euthanized at seven days post injection. This experiment was performed by Phenotype Expertise, Marseilles, France - Pain and CNS behaviour CRO under supervision of Stéphane Gaillard, PhD (CEO).
Induction of cancer induced bone pain (CIBP model).
Osteosarcoma cell line NCTC 2472 (American Type Culture Collection, CCL-11TM) was cultured for two weeks prior to surgery in NCTC-135 medium (Sigma-Aldrich, Denmark) supplemented with sodium hydrogen carbonate and 10% equine serum (Sigma-Aldrich, Denmark). On the day of surgery, cells were washed with PBS and incubated with 3 mL trypsin-EDTA for five min followed by centrifugation (2800 rpm, 3 min). Supernatant was removed, and cell pellet resuspended in PBS to obtain a cell density of 10^7 cells/mL.
Two separate cohorts of female C3H/HeNHsd mice (Envigo, Netherlands) of 7-8 weeks, were anaesthetized with 6.25 mg/kg xylazine (Rompun vet, 20 mg/mL, Bayer, KVP Pharma + Veterinär Produkte GmbH, Germany, Batch: KV02BHF) and 43.75 mg/kg ketamine (Ketaminol vet, 100 mg/mL, MSD Animal Health, AN Boxmeer, The Netherlands, Batch:
A140A01) and received 1.0-1.2% isoflurane (1000 mg/g isoflurane, Attane vet, ScanVet, Piramal Critical Care Ltd., UK, Batch: G123J18B) during surgery. The mouse was placed on a 37 °C heating pad. Both hind legs were shaved, and a small horizontal incision was made under the knee followed by a vertical incision of approximately 0.5 cm until the patellar tendon was exposed. The patellar tendon was moved to the lateral side exposing the distal epiphysis of the femur. A hole was made in the middle of the distal epiphysis by gently pushing a 30 G needle (0.3x12 mm, 30 Gx1/2”, Luer-Lock, CHIRANA T. Injecta, CH30012) through the bone […]
while rotating. […]

[2] = system: mice, spared nerve injury (SNI) model; experiment: SNI model, von Frey, repeated s.c. administration on 2 consecutive days; assay type: in vivo, mouse; parameters: von Frey threshold, Fig 7A, individual mice: unit not given here
From the text: Repeated and sustained administration of mPD5 in the SNI model.
For the experiment with repeated administration of mPD5 (Figure 7A), male C57BL/6J (Janvier, France) mice underwent surgery leading to partial nerve injury, by cutting the peroneal and tibial nerves, producing hypersensitivity of the remaining sural nerve (SNI) as described in the “Induction of neuropathic pain (SNI model).”-section. On day 21 after surgery, hyperalgesia was confirmed by using von Frey filaments to induce mechanically evoked hypersensitivity and measure paw withdrawal threshold of the animals as described in the “Mechanically-evoked pain (von Frey).”-section. On the same day, mice were injected s.c. with 2, 10, or 50 μmol/kg mPD5 (10 μL/g) and evoked pain was tested again with the use of von Frey filaments at 1 and 5 hours after injection. 24 hours after the first injection, mice were injected s.c. with 2, 10, or 50 μmol/kg mPD5 (10 μL/g) again and evoked pain was tested with the use of von Frey filaments at 1, 5, and 24 hours after the second injection. […]

## CCCCCCCCCCCCCC(=O)N(CCOCCOCCC(=O)N[C@@H](Cc1c[nH]cn1)C(=O)N[C@@H](Cc1c[nH]c2ccccc12)C(=O)N[C@@H](CC(C)C)C(=O)N[C@@H](CCCCN)C(=O)N[C@H](C(=O)O)C(C)C)CCOCCOCCC(=O)N[C@@H](Cc1c[nH]cn1)C(=O)N[C@@H](Cc1c[nH]c2ccccc12)C(=O)N[C@@H](CC(C)C)C(=O)N[C@@H](CCCCN)C(=O)N[C@H](C(=O)O)C(C)C [mPD5, myristoyl-NPEG4-(HWLKV)2]
[1]; SNI day 7, male mice, s.c. 2 μmol/kg
  effect on mechanical hypersensitivity (PWT): no significant effect
[1]; SNI day 7, male mice, s.c. 10 μmol/kg
  duration of significant reduction of mechanical hypersensitivity: up to 3 hours
[1]; dose group 2, contra, BL
  von Frey paw withdrawal threshold, individual animals (Fig 5B): 2 and 1.4 (4×) and 1
[1]; dose group 2, contra, time 0
  von Frey paw withdrawal threshold, individual animals (Fig 5B): 1.4 (2×) and 1 (4×)
[1]; dose group 2, contra, time 1
  von Frey paw withdrawal threshold, individual animals (Fig 5B): 1
[1]; dose group 2, injured side, BL
  von Frey paw withdrawal threshold, individual animals (Fig 5B): 2 (2×) and 1.4 (4×)
[1]; dose group 2, injured side, time 0
  von Frey paw withdrawal threshold, individual animals (Fig 5B): 0.07 (2×) and 0.16 (3×) and 0.4
[1]; dose group 2, injured side, time 1
  von Frey paw withdrawal threshold, individual animals (Fig 5B): 0.6 (2×) and 1 (3×) and 1.4
[1]; dose group 10, contra, BL
  von Frey paw withdrawal threshold, individual animals (Fig 5B): 1.4 (5×) and 1
[1]; dose group 10, contra, time 0
  von Frey paw withdrawal threshold, individual animals (Fig 5B): 1 (4×) and 1.4 (2×)
[1]; dose group 10, contra, time 1
  von Frey paw withdrawal threshold, individual animals (Fig 5B): 1 (3×) and 1.4 (3×)
[1]; dose group 10, injured side, BL
  von Frey paw withdrawal threshold, individual animals (Fig 5B): 1.4 (5×) and 1
[1]; dose group 10, injured side, time 0
  von Frey paw withdrawal threshold, individual animals (Fig 5B): 0.16 (2×) and 0.07 (3×) and 0.4
[1]; dose group 10, injured side, time 1
  von Frey paw withdrawal threshold, individual animals (Fig 5B): 1.4 (2×) and 1
[1]; dose group 50, contra, BL
  von Frey paw withdrawal threshold, individual animals (Fig 5B): 1.4 (4×) and 1 (2×)
[1]; dose group 50, contra, time 0
  von Frey paw withdrawal threshold, individual animals (Fig 5B): 1.4 (3×) and 1 (3×)
[1]; dose group 50, contra, time 1
  von Frey paw withdrawal threshold, individual animals (Fig 5B): 1.4 (4×) and 1 (2×)
[1]; dose group 50, injured side, BL
  von Frey paw withdrawal threshold, individual animals (Fig 5B): 1.4 (5×) and 1
[1]; dose group 50, injured side, time 0
  von Frey paw withdrawal threshold, individual animals (Fig 5B): 0.07 (2×) and 0.16 (2×) and 0.4 (2×)
[1]; dose group 50, injured side, time 1
  von Frey paw withdrawal threshold, individual animals (Fig 5B): 1 (3×) and 1.4 (2×) and 2
[2]; A_contra, hr 5 day2
  von Frey threshold, contralateral paw, Fig 7A, individual mice: 1.4 and 1 (3×)
[2]; A_contra, hr23
  von Frey threshold, contralateral paw, Fig 7A, individual mice: 1 (3×) and 1.4 (4×) and 2
[2]; A_contra, hr1 day 1
  von Frey threshold, contralateral paw, Fig 7A, individual mice: 1.4 (6×) and 1 and 2
[2]; A_contra, hr 1 day 2
  von Frey threshold, contralateral paw, Fig 7A, individual mice: 1 (5×) and 1.4 (2×) and 2
[2]; A_contra, hr 5 day 1
  von Frey threshold, contralateral paw, Fig 7A, individual mice: 1.4 (6×) and 2 and 1
[2]; B_contra, hr23
  von Frey threshold, contralateral paw, Fig 7A, individual mice: 1.4 (4×) and 1 (3×) and 2
[2]; B_contra, hr1 day 1
  von Frey threshold, contralateral paw, Fig 7A, individual mice: 1.4 (5×) and 1 (3×)
[2]; B_contra, hr 1 day 2
  von Frey threshold, contralateral paw, Fig 7A, individual mice: 1.4 (5×) and 1 (3×)
[2]; B_contra, hr 5 day 1
  von Frey threshold, contralateral paw, Fig 7A, individual mice: 1.4 and 1 (2×) and 2 (5×)
[2]; C_comtra, hr23
  von Frey threshold, contralateral paw, Fig 7A, individual mice: 2 and 1.4 (5×) and 1 (2×)
[2]; C_comtra, hr1 day 1
  von Frey threshold, contralateral paw, Fig 7A, individual mice: 3 and 2 (2×) and 1 (2×) and 1.4 (3×)
[2]; C_comtra, hr 1 day 2
  von Frey threshold, contralateral paw, Fig 7A, individual mice: 1 (2×) and 1.4 (4×) and 2 (2×)
[2]; C_comtra, hr 5 day 1
  von Frey threshold, contralateral paw, Fig 7A, individual mice: 2 and 1 (4×) and 1.4 (3×)
[2]; SNI 3 weeks after surgery, first day, s.c. 50 μmol/kg only, 5 hours
  relief of mechanical hypersensitivity: significant effect at 5 hours
[2]; SNI 3 weeks after surgery, first day, s.c. 2, 10, 50 μmol/kg (all concentrations), 1 hour
  relief of mechanical hypersensitivity: significant effects at 1 hour
[2]; SNI, next day (second injection), only 10 and 50 μmol/kg, 1 and 5 hours after administration
  relief of mechanical hypersensitivity: significant pain relief
[2]; SNI, s.c. 2, 10, 50 μmol/kg on 2 consecutive days
  development of tolerance: do not indicate immediate development of tolerance
[2]; group 2, hr 5 day2
  von Frey threshold, Fig 7A, individual mice: 0.07 and 0.16 (2×)
[2]; group 2, hr23
  von Frey threshold, Fig 7A, individual mice: 0.07 (5×) and 0.16 (3×)
[2]; group 2, hr1 day 1
  von Frey threshold, Fig 7A, individual mice: 0.16 and 1 (2×) and 0.6 (2×) and 1.4 and 0.4 (2×)
[2]; group 2, hr 1 day 2
  von Frey threshold, Fig 7A, individual mice: 0.16 (3×) and 1 and 0.6 (3×) and 0.4
[2]; group 2, hr 5 day 1
  von Frey threshold, Fig 7A, individual mice: 0.07 (2×) and 0.4 (3×) and 0.16 (2×) and 0.6
[2]; group 10, hr 5 day2
  von Frey threshold, Fig 7A, individual mice: 1
[2]; group 10, hr23
  von Frey threshold, Fig 7A, individual mice: 0.16 (3×) and 0.4 (3×) and 0.07 (2×)
[2]; group 10, hr1 day 1
  von Frey threshold, Fig 7A, individual mice: 1 (3×) and 2 (2×) and 0.4 and 1.4 and 0.6
[2]; group 10, hr 1 day 2
  von Frey threshold, Fig 7A, individual mice: 1 (3×) and 2 (2×) and 0.4 (2×) and 1.4
[2]; group 10, hr 5 day 1
  von Frey threshold, Fig 7A, individual mice: 0.16 and 2 and 1 (2×) and 0.07 and 0.4 (3×)
[2]; group 50, hr23
  von Frey threshold, Fig 7A, individual mice: 0.16 (5×) and 0.07 (3×)
[2]; group 50, hr1 day 1
  von Frey threshold, Fig 7A, individual mice: 1.4 (5×) and 1 and 0.6 and 0.16
[2]; group 50, hr 1 day 2
  von Frey threshold, Fig 7A, individual mice: 1 (4×) and 0.6 and 1.4 (2×) and 0.4
[2]; group 50, hr 5 day 1
  von Frey threshold, Fig 7A, individual mice: 0.6 (3×) and 1 and 0.4 (2×) and 0.16 (2×)
